The values below come from patent publication US20240228518A1, “NOVEL ORGANOTIN SILICATE COMPOUNDS, PREPARATION METHODS THEREOF AND PHOTORESIST COMPOSITION CONTAINING THE SAME” (JSI SILICONE CO., priority 2022, published 2024).

A short description of series [1]: Solubility experiment in various solvents. It counts as physicochemical. The text has this: [Experimental Example 1] Solubility Experiment of tetrakis(triphenylstannyl) Silicate
For manufacturing a thin film including the tetrakis(triphenylstannyl) silicate compound prepared in Example 1, solubility in various solvents was experimented and is shown in the following Tables 2 and 3: […]

Series [2] in a line: Stability in water (precipitation) of solution with acetic acid. It counts as physicochemical. On the procedure:
Since the photoresist composition included acetic acid, stability of tetrakis(triacetoxystannyl) silicate in water was able to be improved. When water was added at 5% to a 5% tetrakis(triacetoxystannyl) silicate solution, it was confirmed that precipitation occurred immediately. However, when acetic acid was added, precipitation was able to be prevented. It was confirmed that precipitation occurred after 3 minutes in a 10% acetic acid solution, after 3 hours in a 20% solution, and after 5 days in a 30% solution. Besides, the amount of precipitation was decreased as the acetic acid was added. Regarding a large amount of acetic acid, since a hydrolysis rate of an acetoxy group decreased according to le Chatelier's law, stability in water was improved.

Regarding `c1cc[c]([Sn]([O][Si]([O][Sn]([c]2ccccc2)([c]2ccccc2)[c]2ccccc2)([O][Sn]([c]2ccccc2)([c]2ccccc2)[c]2ccccc2)[O][Sn]([c]2ccccc2)([c]2ccccc2)[c]2ccccc2)([c]2ccccc2)[c]2ccccc2)cc1` [Example 1, tetrakis(triphenylstannyl) silicate], the Solubility entry in series [1] (Chloroform) is “highest solubilites and ◯”; in series [1] (Ethyl lactate (EL)), “Δ”; in series [1] (THF) it was “highest solubilites and ◯”; in series [1] (gamma-Butyrolactone (GBL)), “Δ”.
With `CC(=O)[O][Sn]([O]C(C)=O)([O]C(C)=O)[O][Si]([O][Sn]([O]C(C)=O)([O]C(C)=O)[O]C(C)=O)([O][Sn]([O]C(C)=O)([O]C(C)=O)[O]C(C)=O)[O][Sn]([O]C(C)=O)([O]C(C)=O)[O]C(C)=O` [Example 14, tetrakis(triacetoxystannyl) silicate], the “Time until precipitation occurred” value was “immediately” in series [2] (water added at 5% to 5% solution, no acetic acid); 3 min in series [2] (water added, 10% acetic acid solution); 180 min in series [2] (water added, 20% acetic acid solution); 7200 min in series [2] (water added, 30% acetic acid solution).
